Where a name gives a salt, the structure may show the parent alone.
What follows are compounds tested on H1N1 (influenza A/New Caledonia/20/99) (assay: microbe, parasite or virus in culture). Conditions: H1N1, A549, 48 h.
Assay type: cell-based

SMILES | IC50 [nM]
CC1(C)Cc2c(sc(NC(=O)c3ccc(NC4CCOC4)cc3)c2C(=O)O)C(C)(C)C1 (centres unmarked) [Compound #61, 5,5,7,7-Tetramethyl-2-[[4-(tetrahydrofuran-3-ylamino)benzoyl]amino]-4,6-dihydrobenzothiophene-3-carboxylic acid] | 27.9
CC1(C)CCc2sc(NC(=O)c3ccc(Br)cc3)c(C(=O)O)c2C1 [Compound #154, 2-[(4-Bromobenzoyl)amino]-5,5-dimethyl-6,7-dihydro-4H-benzothiophene-3-carboxylic acid] | 30
CC1(C)Cc2c(sc(NC(=O)c3ccc(NC4CCNCC4)cc3)c2C(=O)O)C(C)(C)C1 [Compound #131, hydrochloride salt] | 350
COCCCNc1ccc(C(=O)Nc2sc3c(c2C(=O)O)CC(C)(C)CC3(C)C)cc1 [Compound #140, 2-[[4-(3-Methoxypropylamino)benzoyl]amino]-5,5,7,7-tetramethyl-4,6-dihydrobenzothiophene-3-carboxylic acid] | 3.4
COc1ccc(C(=O)Nc2sc3c(c2C(=O)O)CCC2(CC2)C3)cc1OC [Compound #30, 2-[(3,4-Dimethoxybenzoyl)amino]spiro[5,7-dihydro-4H-benzothiophene-6,1′-cyclopropane]-3-carboxylic acid] | 70
CC1(C)CCc2sc(NC(=O)c3ccccc3)c(C(=O)O)c2C1 [Compound #26, 2-Benzamido-5,5-dimethyl-6,7-dihydro-4H-benzothiophene-3-carboxylic acid] | 84.9
CC1(C)Cc2c(sc(NC(=O)c3ccc(OCC4COC4)cc3)c2C(=O)O)C(C)(C)C1 [#167, 5,5,7,7-Tetramethyl-2-[[4-(oxetan-3-ylmethoxy)benzoyl]amino]-4,6-dihydrobenzothiophene-3-carboxylic acid] | 108
CC1(C)Cc2c(sc(NC(=O)c3ccc(OC4CCOCC4)cc3)c2C(=O)O)C(C)(C)C1 [#170, 5,5,7,7-Tetramethyl-2-[(4-tetrahydropyran-4-yloxybenzoyl)amino]-4,6-dihydrobenzothiophene-3-carboxylic acid] | 35
COCCNc1ccc(C(=O)Nc2sc3c(c2C(=O)O)C(C)CC(C)(C)C3)cc1 (centres unmarked) [Compound #145, 2-1-[[4-(2-Methoxyethylamino)benzoyl]amino]-4,6,6-trimethyl-5,7-dihydro-411-benzothiophene-3-carboxylic acid] | 32
CCOC1CN(c2ccc(C(=O)Nc3sc4c(c3C(=O)O)CC(C)(C)CC4(C)C)cc2)C1 [Compound #156, 2-[[4-(3-Ethoxyazetidin-1-yl)benzoyl]amino]-5,5,7,7-tetramethyl-4,6-dihydrobenzothiophene-3-carboxylic acid] | 2
CC1(C)CCCc2sc(NC(=O)c3ccccc3)c(C(=O)O)c21 [Compound #42, 2-Benzamido-4,4-dimethyl-6,7-dihydro-5H-benzothiophene-3-carboxylic acid] | 192
CC1(C)Cc2c(sc(NC(=O)c3ccc(NCC4CCCOC4)cc3)c2C(=O)O)C(C)(C)C1 (centres unmarked) [Compound #141, 5,5,7,7-Tetramethyl-2-[[4-(tetrahydropyran-3-ylmethylamino)benzoyl]amino]-4,6-dihydrobenzothiophene-3-carboxylic acid] | 3.3
CC1(C)CCc2c(sc(NC(=O)c3cccc(N4CCOCC4)c3)c2C(=O)O)C1 [#203, 6,6-Dimethyl-2-[(3-morpholinobenzoyl)amino]-5,7-dihydro-4H-benzothiophene-3-carboxylic acid] | 130
CC1(C)CCc2c(sc(NC(=O)c3cccc(N4CCOCC4)n3)c2C(=O)O)C1 [#219, 6,6-Dimethyl-2-[(6-morpholinopyridine-2-carbonyl)amino]-5,7-dihydro-4H-benzothiophene-3-carboxylic acid] | 510
CC1(C)CCc2c(sc(NC(=O)c3cnc(N4CCOCC4)nc3)c2C(=O)O)C1 [#208, 6,6-Dimethyl-2-[(2-morpholinopyrimidine-5-carbonyl)amino]-5,7-dihydro-4H-benzothiophene-3-carboxylic acid] | 740
CC1CC(C)(C)c2sc(NC(=O)c3ccccc3)c(C(=O)O)c21 (centres unmarked) [Compound #43, 2-Benzamido-4,6,6-trimethyl-4,5-dihydrocyclopenta[b]thiophene-3-carboxylic acid] | 280
O=C(Nc1sc2c(c1C(=O)O)CCC(F)(F)C2)c1ccccc1 [Compound #117, 2-Benzamido-6,6-difluoro-5,7-dihydro-4H-benzothiophene-3-carboxylic acid] | 1900
CC1(C)CCc2sc(NC(=O)c3cc[nH]n3)c(C(=O)O)c2C1 [#225, 5,5-Dimethyl-2-(1H-pyrazole-3-carbonylamino)-6,7-dihydro-4H-benzothiophene-3-carboxylic acid] | 110
CC1(C)CCc2c(sc(NC(=O)c3ccc(N4CCOCC4)cn3)c2C(=O)O)C1 [#229, 6,6-Dimethyl-2-[(5-morpholinopyridine-2-carbonyl)amino]-5,7-dihydro-4H-benzothiophene-3-carboxylic acid] | 370

SMILES | IC50 [nM]
CC1CC(C)(C)Cc2sc(NC(=O)c3ccc(NCC4CCOCC4)cc3)c(C(=O)O)c21 (centres unmarked) [Compound #157, 4,6,6-Trimethyl-2-[[4-(tetrahydropyran-4-ylmethylamino)benzoyl]amino]-5,7-dihydro-4H-benzothiophene-3-carboxylic acid] | 5
CC1(C)CCc2c(sc(NC(=O)c3cnc(N4CCOCC4)cn3)c2C(=O)O)C1 [#230, 6,6-Dimethyl-2-[(5-morpholinopyrazine-2-carbonyl)amino]-5,7-dihydro-4H-benzothiophene-3-carboxylic acid] | 420
CC1(C)Cc2c(sc(NC(=O)c3ccccn3)c2C(=O)O)C(C)(C)C1 [Compound #90, 5,5,7,7-Tetramethyl-2-(pyridine-2-carbonylamino)-4,6-dihydrobenzothiophene-3-carboxylic acid] | 600
Cn1cc(C(=O)Nc2sc3c(c2C(=O)O)CC(C)(C)CC3(C)C)cn1 [#176, 5,5,7,7-Tetramethyl-2-[(1-methylpyrazole-4-carbonyl)amino]-4,6-dihydrobenzothiophene-3-carboxylic acid] | 460
CC1(C)CCc2sc(NC(=O)c3ccc(Br)cc3)c(C(=O)O)c21 [Compound #158, 2-[(4-Bromobenzoyl)amino]-4,4-dimethyl-5,6-dihydro cyclopenta[b]thiophene-3-carboxylic acid] | 320
COc1ccc(C(=O)Nc2sc3c(c2C(=O)O)CCC(C)(C)C3)nc1OC [Compound #94, 2-[(5,6-Dimethoxypyridine-2-carbonyl)amino]-6,6-dimethyl-5,7-dihydro-4H-benzothiophene-3-carboxylic acid] | 660
COCCn1ccc(C(=O)Nc2sc3c(c2C(=O)O)CC(C)(C)CC3)n1 [#226, 2-[[1-(2-Methoxyethyl)pyrazole-3-carbonyl]amino]-5,5-dimethyl-6,7-dihydro-4H-benzothiophene-3-carboxylic acid] | 820
COC1CN(c2ccc(C(=O)Nc3sc4c(c3C(=O)O)C(C)(C)CC4)cc2)C1 [Compound #146, 2-[[4-(3-Methoxyazetidin-1-yl)benzoyl]amino]-4,4-dimethyl-5,6-dihydrocyclopenta[b]thiophene-3-carboxylicacid] | 83
Cn1cc(C(=O)Nc2sc3c(c2C(=O)O)CCC(C)(C)C3)cn1 [#212, 6,6-Dimethyl-2-[(1-methylpyrazole-4-carbonyl)amino]-5,7-dihydro-4H-benzothiophene-3-carboxylic acid] | 900
COCC1CN(c2ccc(C(=O)Nc3sc4c(c3C(=O)O)CC(C)(C)CC4(C)C)cc2)C1 [#169, 2-[[4-[3-(Methoxymethyl)azetidin-1-yl]benzoyl]amino]-5,5,7,7-tetramethyl-4,6-dihydrobenzothiophene-3-carboxylic acid] | 15.5
O=C(Nc1sc2c(c1C(=O)O)CCC1(CC1)C2)c1ccc(N2CCOCC2)cc1 [Compound #31, 2-[(4-Morpholinobenzoyl)amino]spiro[5,7-dihydro-4H-benzothiophene-6,1′-cyclopropane]-3-carboxylic acid] | 100
CC1(C)Cc2c(sc(NC(=O)c3ccc(OCC4CCOCC4)cc3)c2C(=O)O)C(C)(C)C1 [#162, 5,5,7,7-Tetramethyl-2-[[4-(tetrahydropyran-4-ylmethoxy)benzoyl]amino]-4,6-dihydrobenzothiophene-3-carboxylic acid] | 39
CC1(C)CCc2c(sc(NC(=O)c3ccc(OC(F)(F)F)cc3)c2C(=O)O)C1 [Compound #24, 6,6-Dimethyl-2-[[4-(trifluoromethoxy)benzoyl]amino]-5,7-dihydro-4H-benzothiophene-3-carboxylic acid] | 160
Cc1ccccc1C(=O)Nc1sc2c(c1C(=O)O)CCC(C#N)(c1ccccc1)C2 (centres unmarked) [Compound #105, 6-Cyano-2-[(2-methylbenzoyl)amino]-6-phenyl-5,7-dihydro-4H-benzothiophene-3-carboxylic acid] | 1080
Cn1cc(C(=O)Nc2sc3c(c2C(=O)O)CC(C)(C)CC3)cn1 [#202, 5,5-Dimethyl-2-[(1-methylpyrazole-4-carbonyl)amino]-6,7-dihydro-4H-benzothiophene-3-carboxylic acid] | 900
CC1(C)CCc2sc(NC(=O)c3ccnc(N4CCOCC4)c3)c(C(=O)O)c2C1 [#221, 5,5-Dimethyl-2-[(2-morpholinopyridine-4-carbonyl)amino]-6,7-dihydro-4H-benzothiophene-3-carboxylic acid] | 380
CC1(C)Cc2c(sc(NC(=O)c3ccc(N4CC(F)(F)C4)cc3)c2C(=O)O)C(C)(C)C1 [Compound #148, 2-[[4-(3,3-Difluoroazetidin-1-yl)benzoyl]amino]-5,5,7,7-tetramethyl-4,6-dihydrobenzothiophene-3-carboxylic acid] | 2.6
CC1(C)CCc2sc(NC(=O)c3cccc(N4CCOCC4)n3)c(C(=O)O)c2C1 [#213, 5,5-Dimethyl-2-[(6-morpholinopyridine-2-carbonyl)amino]-6,7-dihydro-4H-benzothiophene-3-carboxylic acid] | 610
CC1(C)CCc2sc(NC(=O)c3ccc(OC(F)(F)F)cc3)c(C(=O)O)c21 [Compound #40, 4,4-Dimethyl-2-[[4-(trifluoromethoxy)benzoyl]amino]-5,6-dihydrocyclopenta[b]thiophene-3-carboxylic acid] | 230
